Test results published in US20140343017A1, “PYRROLE COMPOUND” (Kabushiki Kaisha Yakult Honsha, priority 2012, published 2014).

Experiments:
[1] = test system: Human non-small cell lung cancer NCI-H460 cells; assay: Inhibitory effect on growth of PTX-resistant tumor cell line, parent line (in vitro); type: cell-based; details: 96 hours culture, WST-8
Experimental: Each compound of the present invention was studied for its effect on the growth of a tumor cell line having a PTX resistance mechanism different from that attributed to the high expression of P-glycoprotein. Human non-small cell lung cancer NCI-H460 cells were exposed to 1 nM paclitaxel (PTX) and 10 μM verapamil at the same time. Only the PTX concentration was increased to 2, 3, 4, 5, and 7 nM in order over approximately 6 months to establish PTX-resistant H460/PV2-7 cells (PV2-7). […] As for the PTX resistance mechanism different from that attributed to the high expression of P-glycoprotein, an isotype called Class III β-tubulin (TUBB3), which is one isotype of […], has been reported to be highly expressed in PTX-resistant established lines in vitro or in clinical samples from patients having resistance to PTX therapy.
The PV2-7 cells and the parent line NCI-H460 cells were suspended in a medium and inoculated at a cell density of 1000 cells/50 μL/well to a 96-well plate. After overnight culture, each compound diluted 2-fold (final concentration) was added thereto at a concentration of 50 μL/well, and the cells were cultured for 96 hours. After the completion of culture, WST-8 (Seikagaku Corp.) was added thereto at a concentration of 10 μL/well, and the cells were cultured at 37° C. for approximately 1 hour under 5% CO2 conditions, followed by measurement of absorbance at 450 nm.

[2] = test system: Human uterus cancer MES-SA cells; assay: Inhibitory effect on growth of multidrug-resistant cell line, parent line (in vitro); type: cell-based; details: 48 hours culture, WST-8
Excerpt: (§1) Each compound of the present invention was studied for its effect on the growth of a multidrug-resistant cell line. A drug efflux pump called P-glycoprotein is well known to be involved in the drug resistance mechanism of the multidrug-resistant line MES-SA/Dx5 used in this experiment. Accordingly, in this experiment, paclitaxel and vincristine, which are proven substrates of P-glycoprotein, were used as control drugs. Human uterus cancer MES-SA cells and their multidrug-resistant line MES-SA/Dx5 cells were suspended in a medium and inoculated at a cell density of 2000 cells/50 μL/well to a 96-well plate. After overnight culture, each test sample diluted with a medium was added thereto at a concentration of 50 μL/well, and the cells were further cultured for 48 hours. After the completion of culture, WST-8 was added thereto at a concentration of 10 μL/well, and the cells were cultured at 37° C. for approximately 1 hour under 5% CO2 conditions, followed by measurement of absorbance at a wavelength of 450 nm. […] The resistance rate was calculated according to the following expression:
(§2) Resistance rate=IC50 value (MES-SA/Dx5)/IC50 value (MES-SA)

[3] = test system: human lung cancer NCI-H460 xenograft tumor; assay: Antitumor effect on growth of human lung cancer NCI-H460 xenograft tumor (in vivo); set-up: species or system BALB/c nude mice; details: Mus musculus, NCI-H460, iv, 528 h, tail vein, excised tumor weight Day 22, read-out: Inhibition Rate (%)
Experimental: Each compound of the present invention was studied for its in vivo antitumor effect using human lung cancer NCI-H460 cell-transplanted mice. An NCI-H460 cell suspension containing 2×10^6 cells was subcutaneously transplanted in an amount of 0.1 mL/mouse to the left groin areas of 6-week-old male BALB/c nude mice. The mice were further raised for approximately 1 week to 10 days and divided into groups (4 mice per group) having equal estimated tumor volumes at the point in time when the tumor size reached approximately 100 to 200 mm^3 (Day 1). Each administration sample was administered at a dose of 10 mL/kg into the tail vein of the mice. The dose and administration schedule of each compound were as described in Table 3. At Day 22, tumor was excised from each mouse. The tumor growth inhibition rate (IR: Inhibition Rate) was calculated from the weight of the excised tumor according to the expression shown below. The Dunnett's test was used in the significant difference test.
Tumor growth inhibition rate (Inhibition Rate, %)=(1−(Excised tumor weight of the administration group)/(Excised tumor weight of the control group))×100

[4] = test system: multidrug-resistant line MES-SA/Dx5 cells; assay: Inhibitory effect on growth of multidrug-resistant cell line (in vitro); type: cell-based, human; details: for IC50: Homo sapiens, MES-SA/Dx5 cells, 48 hours culture, WST-8; for Resistance rate: IC50 value (MES-SA/Dx5)/IC50 value (MES-SA)
Excerpt: as §1, §2

[5] = test system: human colorectal cancer HCT116 cells; assay: Inhibitory effect on growth of human cancer cells (in vitro), WST-8; type: cell-based; details: Homo sapiens, HCT-116, 96 h, 96 hours culture
How it was run: (§3)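 Cells seeded at 1000 cells/well in RPMI1640 with 10% FBS, compounds added after overnight culture, then 96 h exposure. Viability by WST-8, about 1 h at 37 °C, 5% CO2, absorbance read at 450 nm.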

[6] = test system: human colorectal cancer HT-29 cells; assay: as above; type: cell-based; details: Homo sapiens, HT-29, 96 h, 96 hours culture, read-out: IC50 (nM) HT29
How it was run: as §3

[7] = test system: human non-small cell lung cancer A549 cells; assay: as above; type: cell-based; details: Homo sapiens, A549, 96 h, 96 hours culture
How it was run: as §3

[8] = Days 1, 3, 5, 8, 10, 12, 15, 17, 19

Row | Structure (SMILES) | IC50 [1] | IC50 [2] | IC50 [4] | Resistance rate [4] | IC50 [5] | IC50 [6] | IC50 [7] | other results
1 | CO[C@H]1C(=O)[C@]2(C)[C@@H](OC)C[C@H]3OC[C@@]3(OC(C)=O)[C@H]2[C@H](OC(=O)c2ccccc2)[C@]2(O)C[C@H](OC(=O)[C@H](O)[C@@H](NC(=O)OC(C)(C)C)c3ccccc3)C(C)=C1C2(C)C [Cabazitaxel, cabazitaxel] | 1.3 nM | – | – | – | – | – | – | –
2 | Cc1[nH]c(-c2nnn(CCO)n2)c(C)c1C(=O)c1cccc(Br)c1 [Compound 102, (3-bromophenyl)(5-(2-(2-hydroxyethyl)-2H-tetrazol-5-yl)-2,4-dimethyl-1H-pyrrol-3-yl)methanone] | – | 3.8 nM | 4.3 nM | 1.1 | 9.5 nM | 8.7 nM | 19.3 nM | inhibition in vivo at 12.5 mg/kg [3, 8]: 43.4%; inhibition in vivo at 25 mg/kg ([3]; 25 mg/kg, Days 1, 3, 5, 8, 10, 12, 15, 17, 19): 61.1%; inhibition in vivo at 37.5 mg/kg ([3]; 37.5 mg/kg, Days 1, 3, 5, 8, 10, 12, 15, 17, 19): 80.5%; inhibition in vivo at 40 mg/kg ([3]; 40 mg/kg, Days 1, 5, 9): 96.5%
3 | COc1ccc(C(=O)c2c(C)[nH]c(-c3nnn(CCO)n3)c2C)cc1Br [Compound 110, (3-bromo-4-methoxyphenyl)(5-(2-(2-hydroxyethyl)-2H-tetrazol-5-yl)-2,4-dimethyl-1H-pyrrol-3-yl)methanone] | – | 5.5 nM | 22.7 nM | 4.2 | 14.2 nM | 8.2 nM | 39.3 nM | inhibition in vivo at 12.5 mg/kg [3, 8]: 55.8%; inhibition in vivo at 18.75 mg/kg ([3]; 18.75 mg/kg, Days 1, 3, 5, 8, 10, 12, 15, 17, 19): 77.4%
4 | Cc1c(-c2nnn(CCO)n2)[nH]c(CO)c1C(=O)c1cccc(Br)c1 [Compound 121, (3-bromophenyl)(5-(2-(2-hydroxyethyl)-2H-tetrazol-5-yl)-2-(hydroxymethyl)-4-methyl-1H-pyrrol-3-yl)methanone] | 76.2 nM | 49.8 nM | 88.4 nM | 1.8 | 43.5 nM | 43.8 nM | 122 nM | inhibition in vivo at 60 mg/kg ([3]; 60 mg/kg, Days 1, 3, 5, 8, 10, 12, 15, 17, 19): 60.6%; inhibition in vivo at 120 mg/kg ([3]; 120 mg/kg, Days 1, 8, 15): 75.5%
5 | Cc1c(-c2nnn(CCO)n2)[nH]c(C(C)O)c1C(=O)c1cccc(Br)c1 (centres unmarked) [Compound 123, (3-bromophenyl)(2-(1-hydroxyethyl)-5-(2-(2-hydroxyethyl)-2H-tetrazol-5-yl)-4-methyl-1H-pyrrol-3-yl)methanone] | 68.8 nM | 63.3 nM | 135 nM | 2.1 | 46.1 nM | 39.5 nM | 326 nM | inhibition in vivo at 50 mg/kg ([3]; 50 mg/kg, Days 1, 3, 5, 8, 10, 12, 15, 17, 19): 58.2%; inhibition in vivo at 100 mg/kg ([3]; 100 mg/kg, Days 1, 5, 9): 56.5%
6 | CNC(=O)c1[nH]c(-c2nnn(CCO)n2)c(C)c1C(=O)c1cccc(Br)c1 [Compound 142, 3-(3-bromobenzoyl)-5-(2-(2-hydroxyethyl)-2H-tetrazol-5-yl)-N,4-dimethyl-1H-pyrrole-2-carboxamide] | 374 nM | 238 nM | 656 nM | 2.8 | 194 nM | 176 nM | 257 nM | inhibition in vivo at 140 mg/kg ([3]; 140 mg/kg, Days 1, 8, 15): 73.8%
7 | COc1ccc(C(=O)c2c(C)[nH]c(-c3nnc(C4CC4)o3)c2C)cc1Br [Compound 198, (3-bromo-4-methoxyphenyl) (5-(5-cyclopropyl-1,3,4-oxadiazol-2-yl)-2,4-dimethyl-1H-pyrrol-3-yl)methanone] | – | 0.21 nM | 0.28 nM | 1.3 | 0.9 nM | 0.3 nM | 1.8 nM | inhibition in vivo at 10 mg/kg ([3]; 10 mg/kg, Days 1, 3, 8, 10, 12, 15, 17, 19): 51.6%
8 | COc1ccc(C(=O)c2c(CO)[nH]c(-c3nnc(C4CC4)o3)c2C)cc1Br [Compound 266, (3-bromo-4-methoxyphenyl)(5-(5-cyclopropyl-1,3,4-oxadiazol-2-yl)-2-(hydroxymethyl)-4-methyl-1H-pyrrol-3-yl)methanone] | – | – | – | – | 1.6 nM | 2.7 nM | 4.7 nM | inhibition in vivo at 20 mg/kg [3, 8]: 39.4%
9 | COc1ccc(C(=O)c2c(C(F)F)[nH]c(-c3nnc(C4CC4)o3)c2C)cc1Br [Compound 267, (3-bromo-4-methoxyphenyl) (5-(5-cyclopropyl-1,3,4-oxadiazol-2-yl)-2-(difluoromethyl)-4-methyl-1H-pyrrol-3-yl)methanone] | – | – | – | – | 39 nM | 10.7 nM | 13 nM | inhibition in vivo at 20 mg/kg [3, 8]: 35.6%
10 | COc1ccc(C(=O)c2c(C(C)O)[nH]c(-c3nnc(C4CC4)o3)c2C)cc1Br (centres unmarked) [Compound 268, (3-bromo-4-methoxyphenyl)(5-(5-cyclopropyl-1,3,4-oxadiazol-2-yl)-2-(1-hydroxyethyl)-4-methyl-1H-pyrrol-3-yl)methanone] | – | – | – | – | 2.5 nM | 5.2 nM | 4.1 nM | inhibition in vivo at 20 mg/kg [3, 8]: 41.2%
11 | CC(=O)O[C@@]12CO[C@@H]1C[C@H](O)[C@@]1(C)C(=O)[C@H](O)C3=C(C)[C@@H](OC(=O)[C@H](O)[C@@H](NC(=O)OC(C)(C)C)c4ccccc4)C[C@@](O)([C@@H](OC(=O)c4ccccc4)[C@H]21)C3(C)C [Docetaxel, docetaxel] | 1.5 nM | – | – | – | – | – | – | –
12 | CC[C@]1(O)C[C@H]2CN(CCc3c([nH]c4ccccc34)[C@@](C(=O)OC)(c3cc4c(cc3OC)N(C=O)[C@H]3[C@@](O)(C(=O)OC)[C@H](OC(C)=O)[C@]5(CC)C=CCN6CC[C@]43[C@@H]65)C2)C1 [Vincristine, vincristine, reference compound] | – | 36.2 nM | 2440 nM | 67.5 | – | – | – | –
